Test results from US20260159497A1, “SOLID FORMS OF A COMPLEMENT FACTOR B INHIBITOR” (Novartis Pharma AG, priority 2022, published 2026).
Where two headings read alike, the source gives them in different places.

Key:
Format in all cases: physicochemical
[1] = Dynamic vapor sorption (DVS) mass change; settings: Table 6
Source text: [table] The mass change by DVS isotherm (2 cycles 40-0-95-0-40% RH) are in the tables below. The mass change is based on the dry weight of each.

[2] = Water content by Karl Fischer titration; settings: ambient conditions; relative to total weight of the salt / free form
[3] = Solubility in Simulated Fluids at 37° C.; settings: for solubility at 30 min / solubility at 24 h: 37 °C, thermodynamic from solid; for solubility at 30 min: read-out: Solubility (mg/mL) 30 min; for solubility at 24 h: read-out: Solubility (mg/mL) 24 h
Source text: Solubility data of Form A (S)-4-(2,2-difluoro-7-((5-methoxy-7-methyl-1H-indol-4-yl)methyl)-7-azaspiro[3.5]nonan-6-yl)benzoic acid, Form B (S)-4-(2,2-difluoro-7-((5-methoxy-7-methyl-1H-indol-4-yl)methyl)-7-azaspiro[3.5]nonan-6-yl)benzoic acid p-toluene sulfonic acid salt, Form C (S)-4-(2,2-difluoro-7-((5-methoxy-7-methyl-1H-indol-4-yl)methyl)-7-azaspiro[3.5]nonan-6-yl)benzoic acid p-toluene sulfonic acid salt, and Form D (S)-4-(2,2-difluoro-7-((5-methoxy-7-methyl-1H-indol-4-yl)methyl)-7-azaspiro[3.5]nonan-6-yl)benzoic acid hydrochloride salt in Simulated Fluids at 37° C.

COc1cc(C)c2[nH]ccc2c1CN1CCC2(C[C@H]1c1ccc(C(=O)O)cc1)CC(F)(F)C2.Cc1ccc(S(=O)(=O)O)cc1 [Form B, (S)-4-(2,2-difluoro-7-((5-methoxy-7-methyl-1H-indol-4-yl)methyl)-7-azaspiro[3.5]nonan-6-yl)benzoic acid p-toluene sulfonate]
Mass change by DVS, 2nd Sorption (%) ([1]; DVS at 25 degree C., 10% RH): 1.11%
Mass change by DVS, 1st Desorption (%) ([1]; DVS at 25 degree C., 20% RH): 1.70%
Mass change by DVS, 1st Sorption (%) ([1]; DVS at 25 degree C., 20% RH): 1.69%
Mass change by DVS, 2nd Desorption (%) ([1]; DVS at 25 degree C., 20% RH): 1.70%
Mass change by DVS, 2nd Sorption (%) ([1]; DVS at 25 degree C., 20% RH): 1.68%
Mass change by DVS, 1st Desorption (%) ([1]; DVS at 25 degree C., 30% RH): 1.98%
Mass change by DVS, 1st Sorption (%) ([1]; DVS at 25 degree C., 30% RH): 1.97%
Mass change by DVS, 2nd Desorption (%) ([1]; DVS at 25 degree C., 30% RH): 1.98%
Mass change by DVS, 2nd Sorption (%) ([1]; DVS at 25 degree C., 30% RH): 1.97%
Mass change by DVS, 1st Desorption (%) ([1]; DVS at 25 degree C., 40% RH): 2.16%
Mass change by DVS, 1st Sorption (%) ([1]; DVS at 25 degree C., 40% RH): 2.15%
Mass change by DVS, 2nd Desorption (%) ([1]; DVS at 25 degree C., 40% RH): 2.16%
Mass change by DVS, 2nd Sorption (%) ([1]; DVS at 25 degree C., 40% RH): 2.15%
Mass change by DVS, 1st Sorption (%) ([1]; DVS at 25 degree C., 50% RH): 2.28%
Mass change by DVS, 2nd Desorption (%) ([1]; DVS at 25 degree C., 50% RH): 2.29%
Mass change by DVS, 1st Sorption (%) ([1]; DVS at 25 degree C., 60% RH): 2.37%
Mass change by DVS, 2nd Desorption (%) ([1]; DVS at 25 degree C., 60% RH): 2.38%
Mass change by DVS, 1st Sorption (%) ([1]; DVS at 25 degree C., 70% RH): 2.45%
Mass change by DVS, 2nd Desorption (%) ([1]; DVS at 25 degree C., 70% RH): 2.47%
Mass change by DVS, 1st Sorption (%) ([1]; DVS at 25 degree C., 80% RH): 2.53%
Mass change by DVS, 2nd Desorption (%) ([1]; DVS at 25 degree C., 80% RH): 2.54%
Mass change by DVS, 1st Sorption (%) ([1]; DVS at 25 degree C., 90% RH): 2.60%
Mass change by DVS, 2nd Desorption (%) ([1]; DVS at 25 degree C., 90% RH): 2.61%
Mass change by DVS, 1st Sorption (%) ([1]; DVS at 25 degree C., 95% RH): 2.67%
Mass change by DVS, 2nd Desorption (%) ([1]; DVS at 25 degree C., 95% RH): 2.67%
Mass change by DVS, 1st Desorption (%) ([1]; DVS at 40 degree C., 0% RH): 0.00%
Mass change by DVS, 1st Sorption (%) ([1]; DVS at 40 degree C., 0% RH): 0.00%
Mass change by DVS, 2nd Desorption (%) ([1]; DVS at 40 degree C., 0% RH): −0.01%
Mass change by DVS, 2nd Sorption (%) ([1]; DVS at 40 degree C., 0% RH): −0.01%
Mass change by DVS, 1st Desorption (%) ([1]; DVS at 40 degree C., 10% RH): 0.97%
Mass change by DVS, 1st Sorption (%) ([1]; DVS at 40 degree C., 10% RH): 0.96%
Mass change by DVS, 2nd Desorption (%) ([1]; DVS at 40 degree C., 10% RH): 0.97%
Mass change by DVS, 2nd Sorption (%) ([1]; DVS at 40 degree C., 10% RH): 0.95%
Mass change by DVS, 1st Desorption (%) ([1]; DVS at 40 degree C., 20% RH): 1.61%
Mass change by DVS, 1st Sorption (%) ([1]; DVS at 40 degree C., 20% RH): 1.59%
Mass change by DVS, 2nd Desorption (%) ([1]; DVS at 40 degree C., 20% RH): 1.60%
Mass change by DVS, 2nd Sorption (%) ([1]; DVS at 40 degree C., 20% RH): 1.59%
Mass change by DVS, 1st Desorption (%) ([1]; DVS at 40 degree C., 30% RH): 1.92%
Mass change by DVS, 1st Sorption (%) ([1]; DVS at 40 degree C., 30% RH): 1.90%
Mass change by DVS, 2nd Desorption (%) ([1]; DVS at 40 degree C., 30% RH): 1.91%
Mass change by DVS, 2nd Sorption (%) ([1]; DVS at 40 degree C., 30% RH): 1.90%
Mass change by DVS, 1st Desorption (%) ([1]; DVS at 40 degree C., 40% RH): 2.10%
Mass change by DVS, 1st Sorption (%) ([1]; DVS at 40 degree C., 40% RH): 2.09%
Mass change by DVS, 2nd Desorption (%) ([1]; DVS at 40 degree C., 40% RH): 2.09%
Mass change by DVS, 2nd Sorption (%) ([1]; DVS at 40 degree C., 40% RH): 2.09%
Mass change by DVS, 1st Sorption (%) ([1]; DVS at 40 degree C., 50% RH): 2.21%
Mass change by DVS, 2nd Desorption (%) ([1]; DVS at 40 degree C., 50% RH): 2.22%
Mass change by DVS, 1st Sorption (%) ([1]; DVS at 40 degree C., 60% RH): 2.28%
Mass change by DVS, 2nd Desorption (%) ([1]; DVS at 40 degree C., 60% RH): 2.29%
Mass change by DVS, 1st Sorption (%) ([1]; DVS at 40 degree C., 70% RH): 2.34%
Mass change by DVS, 2nd Desorption (%) ([1]; DVS at 40 degree C., 70% RH): 2.37%
Mass change by DVS, 1st Sorption (%) ([1]; DVS at 40 degree C., 80% RH): 2.40%
Mass change by DVS, 2nd Desorption (%) ([1]; DVS at 40 degree C., 80% RH): 2.44%
Mass change by DVS, 1st Sorption (%) ([1]; DVS at 40 degree C., 90% RH): 2.49%
Mass change by DVS, 2nd Desorption (%) ([1]; DVS at 40 degree C., 90% RH): 2.49%
Mass change by DVS, 1st Sorption (%) ([1]; DVS at 40 degree C., 95% RH): 2.52%
Mass change by DVS, 2nd Desorption (%) ([1]; DVS at 40 degree C., 95% RH): 2.52%
water content by Karl Fischer titration [2]: 2.3 % w/w
solubility at 30 min ([3]; fassif, FaSSIF, 30 min): > 2 mg/mL
solubility at 30 min ([3]; fessif, FeSSIF, 30 min): > 2 mg/mL
solubility at 24 h ([3]; fessif, FeSSIF, 24 h): > 2 mg/mL
solubility at 30 min ([3]; pH 7, water, Water, initial pH 7.00, 30 min): 0.48 mg/mL
solubility at 24 h ([3]; pH 7, water, Water, initial pH 7.00, 24 h): 0.56 mg/mL
pH at 24 h ([3]; FaSSGF): 1.5
Solubility (mg/mL) 30 min ([3]; FaSSGF, 30 min): 0.40 mg/mL
Solubility (mg/mL) 24 h ([3]; FaSSGF, 24 h): 0.54 mg/mL
pH at 24 h ([3]; FaSSIF): 6.13
Solubility (mg/mL) 24 h ([3]; FaSSIF, 24 h): 0.53 (salt mg/mL
pH at 24 h ([3]; FeSSIF): 4.87
pH at 24 h ([3]; Water, initial pH 7.00): 3.60
